Test results as given in patent publication US20240174637A1, “DEGRADERS OF GRK2 AND USES THEREOF” (Sonata Therapeutics, Inc., priority 2021, published 2024).

Key:
[1] = test system: PAXF1657 EV; assay: 7-day cellular proliferation assay (CellTiter-Glo), PAXF1657 EV; assay type: cell-based; settings: 168 h, 7-day, read-out: 7-day proliferation assay: IC50 GeoMean (uM) [Cell Line: PAXF1657 EV]
How it was run: (§1)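 PAXF1657 pancreatic cancer cells (GRK2-overexpressing vs empty vector; CRISPR GRK2 knockout vs non-targeting control) were seeded at 500 cells/well in RPMI1640/10% FBS, then given a 10-point series, 30 μM-0.0002 μM in 0.3% DMSO. Medium and compound were refreshed after 3 days; CellTiter-Glo luminescence was read at day 7.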

[2] = biological target: T1, GRK2 (Homo sapiens, UniProt P25098); assay: Second ADPGlo GRK2 Inhibition Assay (Example 3); assay type: biochemical; settings: ADP-Glo, 20 μM ATP; read-out: Second ADPGlo Enzymatic GRK2 Assay: IC50 (nM) (Example 3)
T1 sequence (P25098 1-689): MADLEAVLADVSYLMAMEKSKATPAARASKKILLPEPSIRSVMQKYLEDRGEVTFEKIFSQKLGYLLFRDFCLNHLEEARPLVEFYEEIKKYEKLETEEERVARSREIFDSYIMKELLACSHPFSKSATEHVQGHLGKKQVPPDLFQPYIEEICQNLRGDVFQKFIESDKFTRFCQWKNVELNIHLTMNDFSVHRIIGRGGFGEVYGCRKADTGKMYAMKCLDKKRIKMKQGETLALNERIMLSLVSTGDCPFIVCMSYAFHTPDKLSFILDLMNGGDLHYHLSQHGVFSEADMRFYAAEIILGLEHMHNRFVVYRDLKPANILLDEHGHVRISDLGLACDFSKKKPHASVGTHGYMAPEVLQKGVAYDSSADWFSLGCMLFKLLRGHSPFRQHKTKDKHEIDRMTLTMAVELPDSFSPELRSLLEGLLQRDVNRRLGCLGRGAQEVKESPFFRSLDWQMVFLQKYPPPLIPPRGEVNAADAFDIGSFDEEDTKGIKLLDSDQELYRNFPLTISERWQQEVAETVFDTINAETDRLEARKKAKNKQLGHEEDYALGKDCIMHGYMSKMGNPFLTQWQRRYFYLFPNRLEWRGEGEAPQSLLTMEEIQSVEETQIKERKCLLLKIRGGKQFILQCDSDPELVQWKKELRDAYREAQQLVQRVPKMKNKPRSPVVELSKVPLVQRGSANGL
Experimental: Assay: GRK2 (2 nM) was incubated with ATP (20 μM) and GRKtide (1.2 mg/mL) in 11 μL of assay buffer (see above) for 180 min at room temperature. Compounds were dissolved in 100% DMSO, serially diluted 3.16-fold from 100 μM with 10 concentration points and transferred as 100× into assay plate (final compounds concentration in the reaction plate from 1 μM).
Materials: GRK2 was purchased from SignalChem (Cat #A14-10G, Lot #X645-3). Substrate GRKtide was from SignalChem (Cat #G46-58, Lot #R339-6). ADP-Glo Kinase Assay from Promega (Cat #V9102). Assay buffer consisted of 20 mM HEPES (pH7.5), 20 mM MgCl2, 0.01% Tween-20, 0.05 mM DDT. 384-well white plates were from Corning (Cat #4513).
HTS protocol: Add 5.5 μL of 2× substrate-enzyme mix into all columns except of 1-2 and 24 of reaction plate. Spin 15 seconds at 200 g. Transfer 1 ul of compounds from the plate with serial dilutions (384 well plate with 22 uL of compound in columns 3-22/DMSO solution 1-2,23-24) to Dilution plate (384 well plate with 49 uL of buffer with 2×40 μM ATP). After mixing transfer 5.5 ul from Dilution plate to Reaction plate (to 5.5 μL of 2× substrate-enzyme mix). Spin 15 seconds at 200 g and incubate for 180 min at room temperature with sealing. Add 3 μL ADP-Glo reagent to all the wells. Spin 15 seconds at 200 g and incubate for 40 min at room temperature. Add 6 μL Detection solution to all the wells. Incubate for 30 min at room temperature. Read plate using ClarioStar Plus (BMG).
Data Analysis: Data were analyzed in GraphPad Prism 5.0.2. Each HTS plate contains compounds in columns 3-22, controls (enzyme, no compound) in column 23, and blanks (no enzyme) in columns 2. HTS percent inhibition was calculated for each compound from the signal in luminescence units and the mean of the plate controls and the mean of the plate blanks using the following equation: % Inhibition=100*(1-(signal-blank mean)/(control mean-blank mean)).

[3] = test system: PAXF1657 KO Clone #4; assay: 7-day cellular proliferation assay (CellTiter-Glo), PAXF1657 KO Clone #4; assay type: cell-based; settings: 168 h, 7-day, read-out: 7-day proliferation assay: IC50 GeoMean (uM) [Cell Line: PAXF1657 KO Clone #4]
How it was run: as §1

[4] = biological target: T1, GRK2; assay: GRK2 Degradation Assay and Western Blot in PAXF1657 cells; assay type: cell-based; parameters: endogenous in cells; host or cells: PAXF1657; settings: PAXF1657 EV, 24 hrs; for inhibition at 0.3 µM: read-out: % GRK2 degradation at 0.3 uM in PAXF1657 EV (24 hrs); for inhibition at 1 µM: read-out: % GRK2 degradation at 1 uM in PAXF1657 EV (24 hrs); for inhibition at 3 µM: read-out: % GRK2 degradation at 3 uM in PAXF1657 EV (24 hrs)
How it was run: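 PAXF1657 cells grown to 70% confluency, then treated with compounds at 0–10 μM for 6 to 24 h at 37 °C. Lysates in PBS with 1% NP40 run on SDS-PAGE. GRK2 protein detected by western blot with β-actin as loading reference, using ECL chemiluminescence.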

Row | IC50 [2] [nM] | inhibition at 0.3 µM [4] [%] | inhibition at 1 µM [4] [%] | inhibition at 3 µM [4] [%] | Structure (SMILES) | IC50 [1] [µM] | IC50 [3] [µM]
1 | < 100 | – | 44 | 13 | Cc1ncsc1-c1ccc(CNC(=O)[C@@H]2C[C@@H](O)CN2C(=O)[C@@H](NC(=O)CCCCCOCCOCCOCCCCCCOc2cccc(CNC(=O)c3cccc(NCc4nnc(-c5ccncn5)n4C)c3)c2)C(C)(C)C)cc1 [Compound D99] | < 1 | 1 to 10
2 | < 100 | – | – | – | Cn1c(CNc2cccc(C(=O)NCc3cccc(OCCCC(=O)Nc4cccc5c4CN(C4CCC(=O)NC4=O)C5=O)c3)c2)nnc1-c1ccncn1 (centres unmarked) [Compound D70] | – | –
3 | < 100 | 19 | 31 | 6 | Cc1ncsc1-c1ccc(CNC(=O)[C@@H]2C[C@@H](O)CN2C(=O)[C@@H](NC(=O)CCCCCCOc2cccc(CNC(=O)c3cccc(NCc4nnc(-c5ccncn5)n4C)c3)c2)C(C)(C)C)cc1 [Compound D96] | 1 to 10 | > 10
4 | < 100 | – | – | – | COc1cc(OCC(=O)NCCOCCOCC(=O)N[C@H](C(=O)N2C[C@H](O)C[C@H]2C(=O)NCc2ccc(-c3scnc3C)cc2)C(C)(C)C)ccc1CNC(=O)c1cccc(NCc2nnc(-c3ccncn3)n2C)c1 [Compound D95] | – | –
5 | < 100 | – | 11 | – | Cc1ncsc1-c1ccc(CNC(=O)[C@@H]2C[C@@H](O)CN2C(=O)[C@@H](NC(=O)CCCOc2cccc(CNC(=O)c3cccc(NCc4nnc(-c5ccncn5)n4C)c3)c2)C(C)(C)C)cc1 [Compound D97] | > 10 | 1 to 10
6 | < 100 | – | – | – | Cc1ncsc1-c1ccc(CNC(=O)[C@@H]2C[C@@H](O)CN2C(=O)[C@@H](NC(=O)CCCCCOCCCCCOCCCCCCOc2cccc(CNC(=O)c3cccc(NCc4nnc(-c5ccncn5)n4C)c3)c2)C(C)(C)C)cc1 [Compound D98] | – | –
7 | < 100 | 17 | 34 | 30 | Cc1ncsc1-c1ccc(CNC(=O)[C@@H]2C[C@@H](O)CN2C(=O)[C@@H](NC(=O)COCCCOCCCCCOc2cccc(CNC(=O)c3cccc(NCc4nnc(-c5ccncn5)n4C)c3)c2)C(C)(C)C)cc1 [Compound D85, (2S,4R)-1-((S)-3,3-dimethyl-2-(2-(3-((5-(3-((3-(((4-methyl-5-(pyrimidin-4-yl)-4H-1,2,4-triazol-3-yl)methyl)amino)benzamido)methyl)phenoxy)pentyl)oxy)propoxy)acetamido)butanoyl)-4-hydroxy-N-(4-(4-methylthiazol-5-yl)benzyl)pyrrolidine-2-carboxamide] | 1 to 10 | > 10

The next lines start with the molecule.

Row | Structure (SMILES) | IC50 [2] [nM] | inhibition at 0.3 µM [4] [%] | inhibition at 1 µM [4] [%] | inhibition at 3 µM [4] [%] | IC50 [1] [µM] | IC50 [3] [µM]
8 | Cn1c(CNc2cccc(C(=O)NCc3cccc(OCCCCCCCn4cc(CCCCC(=O)Nc5cccc6c5CN(C5CCC(=O)NC5=O)C6=O)nn4)c3)c2)nnc1-c1ccncn1 (centres unmarked) [Compound D60] | < 100 | -3 | 13 | 69 | > 10 | > 10
9 | Cn1c(CNc2cccc(C(=O)NCc3cccc(OCCCCCCn4cc(CCCCC(=O)Nc5cccc6c5CN(C5CCC(=O)NC5=O)C6=O)nn4)c3)c2)nnc1-c1ccncn1 (centres unmarked) [Compound D62] | < 100 | 35 | 56 | 75 | > 10 | > 10
10 | Cn1c(CNc2cccc(C(=O)NCc3ccc(OCCCCCCOCCOCCOCCCCCC(=O)Nc4cccc5c4CN(C4CCC(=O)NC4=O)C5=O)cc3)c2)nnc1-c1ccncn1 (centres unmarked) [Compound D65] | < 100 | 36 | 64 | 67 | < 1 | > 10
11 | Cn1c(CNc2cccc(C(=O)NCc3cccc(OCCCCCCOCCOCCCCCC(=O)Nc4cccc5c4CN(C4CCC(=O)NC4=O)C5=O)c3)c2)nnc1-c1ccncn1 (centres unmarked) [Compound D52] | < 100 | – | – | – | – | –
12 | Cn1c(CNc2cccc(C(=O)NCc3cccc(OCCCCCCC(=O)Nc4cccc5c4CN(C4CCC(=O)NC4=O)C5=O)c3)c2)nnc1-c1ccncn1 (centres unmarked) [Compound D69] | < 100 | – | – | – | – | –
